{"source": "patent US8592407B2", "about": "“Pyrrolo[2,1-c][1,4] benzodiazepine derivatives with dithiocarbamate side chains and process for the preparation thereof” (Council of Scientific & Industrial Research, priority 2008, dated 2013)", "key": {"Ovary OVCAR-5": {"tested_on": "Ovary OVCAR-5", "assay": "Preliminary in vitro cytotoxicity on six cell lines"}, "Lung A-549": {"tested_on": "Lung A-549", "assay": "Preliminary in vitro cytotoxicity on six cell lines"}, "Colon HCT-15": {"tested_on": "Colon HCT-15", "assay": "Preliminary in vitro cytotoxicity on six cell lines", "details": "unit assumed"}, "Liver HEP-2": {"tested_on": "Liver HEP-2", "assay": "Preliminary in vitro cytotoxicity on six cell lines", "details": "unit assumed"}, "Neuroblastoma IMR-32": {"tested_on": "Neuroblastoma IMR-32", "assay": "Preliminary in vitro cytotoxicity on six cell lines"}, "calf thymus DNA (CT-DNA)": {"tested_on": "calf thymus DNA (CT-DNA)", "assay": "Thermal denaturation studies with duplex-form calf thymus DNA", "format": "binding", "details": "[PBD]:[DNA] 1:5, CT-DNA 100 μM, ligand 20 μM, pH 7.00; for ΔTm after incubation at 37° C. for 0 h: 0 h at 37° C.; for ΔTm after incubation at 37° C. for 18 h: 18 h at 37° C.", "protocol": "Compounds have been subjected to thermal denaturation studies with duplex-form calf thymus DNA (CT-DNA) using an modification of a reported procedure (Newman, M. S. Carcinog-compr. Surv. 1976, 1, 203; (b) Hecht, S. S.; Loy, M.; Hoffman, Carcinog-compr. Surv. 1976, 1, 325). Working solutions in aqueous buffer (10 mM NaH2PO4/Na2HPO4, 1 mM Na2EDTA, pH 7.00+0.01) containing CT-DNA (100 μm in phosphate) and the PBD (20 μm) have been prepared by addition of concentrated PBD solutions in DMSO to obtain a fixed [PBD]/[DNA] molar ratio of 1:5. The DNA−PBD solutions have been incubated at 37° C. for 0 and 18 h prior to analysis. Samples have been monitored at 260 nm using a Beckman DU-800 spectrophotometer fitted with high performance temperature controller, and heated at 1° C. min^−1\nin the 40-110° C. range. DNA helix[…]coil transition temperatures (Tm) have been obtained from the maxima in the d(A260)/dT derivative plots. Drug-induced alterations in DNA melting behavior are given by: ΔTm=Tm(DNA+PBD)−Tm (DNA alone), where the Tm value for the PBD-free CT-DNA is 69.1±0.01."}, "Colon 502713": {"tested_on": "Colon 502713", "assay": "Preliminary in vitro cytotoxicity on six cell lines", "details": "concentration (mg/ml) 1 × 10^−5 M"}, "[1]": {"details": "concentration (mg/ml) 1 × 10^−6 M"}, "[2]": {"details": "concentration (mg/ml) 1 × 10^−5 M"}}}
{"smiles": "COc1cccc2c1C(=O)c1c(O)c3c(c(O)c1C2=O)C[C@@](O)(C(=O)CO)C[C@@H]3O[C@H]1C[C@H](N)[C@H](O)[C@H](C)O1", "note": "[Adriamycin, reference compound]", "values": [{"measurement": "Preliminary in vitro cytotoxicity data", "setting": "Ovary OVCAR-5; [1]", "value": 30}, {"measurement": "Preliminary in vitro cytotoxicity data", "setting": "Lung A-549; [1]", "value": 61}, {"measurement": "Preliminary in vitro cytotoxicity data", "setting": "Colon HCT-15; [1]", "value": 58, "unit": "%"}, {"measurement": "Preliminary in vitro cytotoxicity data", "setting": "Liver HEP-2; [1]", "value": 31, "unit": "%"}, {"measurement": "Preliminary in vitro cytotoxicity data", "setting": "Neuroblastoma IMR-32; [1]", "value": 80}]}
{"smiles": "COc1cc2c(cc1OCCCCCN1CCN(C(=S)SCCC(C#N)(c3ccccc3)c3ccccc3)CC1)N=C[C@@H]1CCCN1C2=O", "note": "[Compound 12d, 3-cyano-3,3-diphenylpropyl 4-(5-[(11aS)-7-(methyloxy)-5-oxo-2,3,5,11a-tetrahydro-1H-benzo[e]pyrrolo[1,2-a][1,4]diazepin-8-yl]oxypentyl)hexahydro-1-pyrazinecarbodithioate]", "values": [{"measurement": "ΔTm after incubation at 37° C. for 0 h", "setting": "calf thymus DNA (CT-DNA)", "value": 2.0, "unit": "°C"}, {"measurement": "ΔTm after incubation at 37° C. for 18 h", "setting": "calf thymus DNA (CT-DNA)", "value": 2.1, "unit": "°C"}]}
{"smiles": "COc1cc2c(cc1OCCCSC(=S)N1CCN(CCCN3C(=O)c4cccc5cccc(c45)C3=O)CC1)N=C[C@@H]1CCCN1C2=O", "note": "[Compound 13b, 3-[(11aS)-7-(methyloxy)-5-oxo-2,3,5,11a-tetrahydro-1H-benzo[e]pyrrolo[1,2-a][1,4]diazepin-8-yl]oxypropyl4-[3-(1,3-dioxo-2,3-dihydro-1H-benzo[de]isoquinolin-2-yl)propyl]hexahydro-1-pyrazinecarbodithioate]", "values": [{"measurement": "ΔTm after incubation at 37° C. for 0 h", "setting": "calf thymus DNA (CT-DNA)", "value": 3.1, "unit": "°C"}, {"measurement": "ΔTm after incubation at 37° C. for 18 h", "setting": "calf thymus DNA (CT-DNA)", "value": 3.3, "unit": "°C"}]}
{"smiles": "COc1cc2c(cc1OCCCCSC(=S)N1CCN(CCCN3C(=O)c4cccc5cccc(c45)C3=O)CC1)N=C[C@@H]1CCCN1C2=O", "note": "[Compound 13c, 4-[(11aS)-7-(methyloxy)-5-oxo-2,3,5,11a-tetrahydro-1H-benzo[e]pyrrolo[1,2-a][1,4]diazepin-8-yl]oxybutyl4-[3-(1,3-dioxo-2,3-dihydro-1H-benzo[de]isoquinolin-2-yl)propyl]hexahydro-1-pyrazinecarbodithioate]", "values": [{"measurement": "ΔTm after incubation at 37° C. for 0 h", "setting": "calf thymus DNA (CT-DNA)", "value": 5.0, "unit": "°C"}, {"measurement": "ΔTm after incubation at 37° C. for 18 h", "setting": "calf thymus DNA (CT-DNA)", "value": 5.0, "unit": "°C"}]}
{"smiles": "COc1cc2c(cc1OCCCCCSC(=S)N1CCN(CCCN3C(=O)c4cccc5cccc(c45)C3=O)CC1)N=C[C@@H]1CCCN1C2=O", "note": "[Compound 13d, 5-[(11aS)-7-(methyloxy)-5-oxo-2,3,5,11a-tetrahydro-1H-benzo[e]pyrrolo[1,2-a][1,4]diazepin-8-yl]oxypentyl4-[3-(1,3-dioxo-2,3-dihydro-1H-benzo[de]isoquinolin-2-yl)propyl]hexahydro-1-pyrazinecarbodithioate]", "values": [{"measurement": "ΔTm after incubation at 37° C. for 0 h", "setting": "calf thymus DNA (CT-DNA)", "value": 4.0, "unit": "°C"}, {"measurement": "ΔTm after incubation at 37° C. for 18 h", "setting": "calf thymus DNA (CT-DNA)", "value": 4.6, "unit": "°C"}]}
{"smiles": "COc1cc2c(cc1OCCCCSC(=S)N1CCN(C)CC1)N=C[C@@H]1CCCN1C2=O", "note": "[Compound 14c, 4-[(11aS)-7-(methyloxy)-5-oxo-2,3,5,11a-tetrahydro-1H-benzo[e]pyrrolo[1,2-a][1,4]diazepin-8-yl]oxybutyl4-methylhexahydro-1-pyrazinecarbodithioate]", "values": [{"measurement": "Preliminary in vitro cytotoxicity data", "setting": "Ovary OVCAR-5; [2]", "value": 36}, {"measurement": "ΔTm after incubation at 37° C. for 0 h", "setting": "calf thymus DNA (CT-DNA)", "value": 2.1, "unit": "°C"}, {"measurement": "ΔTm after incubation at 37° C. for 18 h", "setting": "calf thymus DNA (CT-DNA)", "value": 2.2, "unit": "°C"}, {"measurement": "Preliminary in vitro cytotoxicity data", "setting": "Lung A-549; [2]", "value": 50}, {"measurement": "Preliminary in vitro cytotoxicity data", "setting": "Colon 502713", "value": 75}, {"measurement": "Preliminary in vitro cytotoxicity data", "setting": "Colon HCT-15; [2]", "value": 82, "unit": "%"}, {"measurement": "Preliminary in vitro cytotoxicity data", "setting": "Liver HEP-2; [2]", "value": 66, "unit": "%"}, {"measurement": "Preliminary in vitro cytotoxicity data", "setting": "Neuroblastoma IMR-32; [2]", "value": 86}]}
{"smiles": "COc1cc2c(cc1OCCCCCSC(=S)N1CCN(C)CC1)N=C[C@@H]1CCCN1C2=O", "note": "[Compound 14d, 5-[(11aS)-7-(methyloxy)-5-oxo-2,3,5,11a-tetrahydro-1H-benzo[e]pyrrolo[1,2-a][1,4]diazepin-8-yl]oxypentyl4-methylhexahydro-1-pyrazinecarbodithioate]", "values": [{"measurement": "Preliminary in vitro cytotoxicity data", "setting": "Ovary OVCAR-5; [2]", "value": 22}, {"measurement": "ΔTm after incubation at 37° C. for 0 h", "setting": "calf thymus DNA (CT-DNA)", "value": 6.0, "unit": "°C"}, {"measurement": "ΔTm after incubation at 37° C. for 18 h", "setting": "calf thymus DNA (CT-DNA)", "value": 10.9, "unit": "°C"}, {"measurement": "Preliminary in vitro cytotoxicity data", "setting": "Lung A-549; [2]", "value": 31}, {"measurement": "Preliminary in vitro cytotoxicity data", "setting": "Colon 502713", "value": 78}, {"measurement": "Preliminary in vitro cytotoxicity data", "setting": "Colon HCT-15; [2]", "value": 50, "unit": "%"}, {"measurement": "Preliminary in vitro cytotoxicity data", "setting": "Liver HEP-2; [2]", "value": 66, "unit": "%"}, {"measurement": "Preliminary in vitro cytotoxicity data", "setting": "Neuroblastoma IMR-32; [2]", "value": 95}]}
{"smiles": "COc1cc2c(cc1O)N=CC1CCCN1C2=O", "note": "(stereo not shown) [DC-81, reference compound]", "values": [{"measurement": "ΔTm after incubation at 37° C. for 0 h", "setting": "calf thymus DNA (CT-DNA)", "value": 0.3, "unit": "°C"}, {"measurement": "ΔTm after incubation at 37° C. for 18 h", "setting": "calf thymus DNA (CT-DNA)", "value": 0.7, "unit": "°C"}]}
